The series is described as follows: Maximum (saturation) solubility in 10 mM citric buffer, HPLC assay. In kind it is physicochemical. The note with it: for solubility at 48 h: 10 mM citric buffer, thermodynamic from solid. On the procedure: In order to compare the maximum solubility of pharmaceutically acceptable salts of rotigotine, e.g. rotigotine.H3PO4, with rotigotine.HCl, the solubility studies of rotigotine.salts were carried out as described by Nugroho et al. (Pharm. Res. 21 (2004), 844-855), which is incorporated herein by reference, who determined the solubility of rotigotine.HCl. Briefly, rotigotine.salt was solubilized in 10 mM citric buffer at pH 4, 5 and 6 with and without the presence of NaCl (at room temperature). Subsequent adjustment of pH in each test tube was performed by alternating adding small quantities of 1M NaOH under continuous shaking and subsequent pH measurements, until the pH of each solution had stabilized at the original buffer value. Each solution was shaken for an additional 48 hours, after which each solution was centrifuged and filtered. The concentration in each solution was determined by HPLC. Room temperature or ambient as used in the present application is to be understood to apply to a range from 18° C. to 25° C., preferred is about 20° C.
The maximum solubilities of rotigotine hydrochloride (abbreviated as Ro.HCl) and rotigotine hydrophosphate (abbreviated as rotigotine.H3PO4 or Ro.H3PO4) have been investigated as a function of pH in a number of solvents (table.1). Ro.H3PO4 was dissolved in the indicated buffer upon which the pH of the formed solution was adjusted to the target value by addition of sodium hydroxide solution. […] The drug was assayed by HPLC analysis in the filtered solution.
• Column: Merck Superspher 60 RP select B, length: 7.5 cm, column internal diameter: 4 mm, particle size: 5 μm • Mobile phase: 60% (v/v) water, 40% (v/v) acetonitrile 0.05% (v/v) methanesulfonic acid • Flow: 1.0 ml/min • Injection volume: collected fractions: 50 μl, diluted donor solutions: 4 μl • Column temperature: ambient • Detection: fluorescence, λex=276 nm, λem=302 nm

Read-outs that look alike come from different tables or passages of the source.

Experimental findings from patent US9034914B2, “Pharmaceutical composition comprising rotigotine salts (acid or Na), especially for iontophoresis” (UCB Pharma GmbH, priority 2009, dated 2015) are described below.

The solubility is the concentration that dissolves in the medium under given conditions.

`CCCN(CCc1cccs1)[C@H]1CCc2c(O)cccc2C1.O=P(O)(O)O` [rotigotine.H3PO4, rotigotine dihydrogen phosphate]: the solubility at 48 h runs as follows: (aqueous buffer, pH range of about 4 to 5.5, read-out: water solubility) 34 to 83 mM; (pH 4, aqueous buffer, pH 4, 68 mM NaCl, n = 2-3, read-out: Solubility) 80.1 mM; (pH 4, aqueous buffer, pH 4, no NaCl, n = 2-3, read-out: Solubility) 83.5 mM; (pH 5, aqueous buffer, pH 5, 68 mM NaCl, n = 2-3, read-out: Solubility) 43 mM; (pH 5, aqueous buffer, pH 5, no NaCl, n = 2-3, read-out: Solubility) 41.9 mM; (pH 6, aqueous buffer, pH 6, 68 mM NaCl, n = 2-3, read-out: Solubility) 14.4 mM. In addition, the solubility at 48 h (pH 6, aqueous buffer, pH 6, no NaCl, n = 2-3, read-out: Solubility) was 15.7 mM. Also, the “solubility fold higher compared to rotigotine-HCl” value is listed as 12 fold (pH 4), 7 fold (pH 5) and 2 fold (pH 6). In addition, where the note is “selected pH values 4, 5, 6, 68 mM NaCl, 2-way ANOVA p>0.05”, the “effect of addition of NaCl on solubility” value was “did not affect significantly”.
